Reference: patent US6770632B1, “Folypolyglutamyl synthetase gene transfer to enhance antifolate” (priority 1999, dated 2004)
Where two headings read alike, the source gives them in different places.

Legend:
[1] = test system: subcutaneous 9L/FPGS tumors; test: Growth of subcutaneous 9L/FPGS tumors in nude mice; type: in vivo; conditions: after three weeks
Protocol: (§1) In Vivo Experiments: 10^5 9L or 9L/FPGS cells or a mixture of 8×10^5 9L+2×10^5 9L/FPGS cells in 200 μL DMEM were injected subcutaneously into the flanks of six week old female nude mice (NCr/Sed, nu/nu, 20 gm; Massachusetts General Hospital breeding colony). After 14 days, when the tumors had reached an average volume of 60 mm^3, the mice were randomly divided into experimental groups with five mice per group. Intraperitoneal injections of varying MTX or EDX doses dissolved in 200 μL 0.9% NaCl were administered either daily or every third day. Tumor size was measured weekly using calipers. Tumor volume was calculated as length×width×height, as described previously (Takamiya, Y., et al., Journal of Neuroscience Research 33:493-503 (1992)).

[2] = mouse, in vivo, 9 mg/kg; cited from earlier work
subcutaneous 9L tumors = test: Growth of subcutaneous 9L tumors in nude mice; type: in vivo; conditions: after three weeks
Protocol: as §1

[3] = in vivo, cited from earlier work
hepatoma cells = conditions: cited from earlier work
9L cells [4] = conditions: rat, 24 h, 2 μM
Protocol: (§3) Thin Layer Chromatography of MTX Metabolites: 10^6 9L or 9L/FPGS cells were plated in 6-cm diameter dishes and allowed to adhere for 4 hours, after which cells were incubated overnight with 2 μM 3′, 5′, 7-[^3H] methotrexate (Moravek Biochemicals; Brea, Calif.). Cells were then trypsinized, centrifuged, resuspended in 300 μL deionized water, and sonicated for 45 seconds at half-maximal power. Sonicated cells were centrifuged briefly to remove cellular debris, after which protein concentration was calculated using the Bradford protein assay. Proteins were precipitated with 1 mL methanol at −20° C. for 2 hr. Precipitated proteins were removed by centrifugation at 20,000 g for 30 min, and the supernatant was then concentrated to 30 μL under a stream of N2 at 37° C. on a Meyer N-Evap Analytical Evaporator (Organomation Associates Inc., Northborough, Mass.). A 1 μL aliquot was scintillation counted—cpm were converted into moles of drug taken up by determining the cpm of a known quantity of [^3H] MTX. […] Plates were eluted with a chloroforrn-methanol-acetic acid mixture (2:2:1) containing 20 mg/mL cetyl trimethylammonium bromide (Sigma). Following elution, the plates were placed under ordinary fluorescent light for 2 days, after which 20 nmol unlabelled standards were visualized under long-wave ultraviolet light. Plates were run in duplicate and the average RF values of the standards were: MTX=0.66; MTX-G1=0.59; MTX-G2=0.44, MTX-G3=0.33; MTX-G4=0.27; MTX-G5=0.25. Regions corresponding to where standards migrated were marked in the sample lane, scraped individually into scintillation vials, and counted. The amount of each radioactive metabolite in a sample lane was determined as a percentage of the total radioactivity recovered from that sample lane, after subtraction of the background counts obtained from lanes lacking radioactive sample.

9L/FPGS cells [5] = conditions: rat, 24 h, 2 μM
Protocol: as §3

in vivo = conditions: nude, mouse, ip
9L cells [6] = test: Cell culture survival study, 9L cells; type: cell-based, rat; conditions: for EC50: Rattus norvegicus, 9L, read-out: ED50 (the source's name)
Protocol: (§2) Cell Culture Survival Studies: Cells were plated in triplicate at 8×10^5 cells per 10-cm-diameter plate, and were allowed to adhere for 4 hours, after which the medium was replaced with medium containing MTX or EDX. […] Drug-free medium was then added, and three days later the cells were trypsinized and counted on a model ZM Coulter apparatus. Dose-response curves were generated using Sigma Plot 3.0, which employs curve-fitting parameters based on the Marquardt-Levenberg method (Marquardt, D. W., Siam, J., J. Soc. Indust. Appl. Math 11:431-441 (1963)).

[7] = nude mice, five consecutive days, previous studies (Inaba 1989); cited from earlier work
U87 cells = test: Cell culture survival study, U87 cells; type: cell-based, human
Protocol: Cell Culture Survival Studies: Cells were plated in triplicate at 8×10^5 cells per 10-cm-diameter plate, and were allowed to adhere for 4 hours, after which the medium was replaced with medium containing MTX or EDX. After 4 hours drug exposure, the plates were washed three times with 4 mL PBS. Drug-free medium was then added, and three days later the cells were trypsinized and counted on a model ZM Coulter apparatus. Dose-response curves were generated using Sigma Plot 3.0, which employs curve-fitting parameters based on the Marquardt-Levenberg method (Marquardt, D. W., Siam, J., J. Soc. Indust. Appl. Math 11:431-441 (1963)).

[8] = test system: cocultures of 9L/FPGS and 9L cells; test: Bystander effect study, cocultures of 9L/FPGS and 9L cells; type: cell-based, rat
Protocol: For bystander effect studies, cells were plated in triplicate with varying combinations of 9L/FPGS and 9L cells such that the total number of cells was 8×10^5 per 10-cm-diameter plate. The same protocol of 4 hour cell adherence followed by 4 hour drug exposure, washes, growth in drug free medium for 3 days, and counting on a ZM coulter apparatus was then followed. […] Four mL conditioned medium+2 mL fresh medium were added to 10-cm-diameter plates containing 9L/BAG cells plated overnight (1000 cells/dish, with a clonogenic efficiency of approximately 20%). Six days later, the cells were fixed with 4% paraformaldehyde in PBS. Fixed cells were stained for LacZ by incubating overnight in a solution containing 35 mM potassium ferricyanide, 35 mM potassium ferrocyanide, 2 mM magnesium chloride, and 0.2% 5-bromo-4-chloro-3-indolyl-β-D galactoside (Xgal; Fisher Scientific Co.;Pittsburgh, Pa.) at pH=7.3 (Price, J., et al., Proceedings of the National Academy of Sciences USA 84:156-160 (1987)). The next day, blue colonies greater than 1 mm in diameter were counted.
However, a more quantitative approach is to generate a dose-response curve for nontransfected cells, transfected cells, and a coculture and to calculate the transmission efficiency (TE) for the coculture (Friedlos, F., et al., Journal of Medicinal Chemistry 40:1270-1275 (1997)). [formula]
The superscripts 0, N, and 100 designate the ED50 values for cultures containing 0, N, and 100% transfected cells.

9L/FPGS cells [9] = test: Cell culture survival study, 9L/FPGS cells; type: cell-based, rat; conditions: for EC50: Rattus norvegicus, 9L/FPGS, read-out: ED50 (the source's name)
Protocol: as §2

[10] = Maximum tolerated (nonlethal) dose in nude mice
[11] = 4 h, 4 hrs drug exposure, curves of FIG. 1 (MTX) / FIG. 3a (EDX)

Question: With `CN(Cc1cnc2nc(N)nc(N)c2n1)c1ccc(C(=O)N[C@@H](CCC(=O)O)C(=O)O)cc1` [MTX, Amethopterin] as the compound, how does the “fold growth of tumor volume” value ([1]; 9 mg/kg daily i.p.) read?
Answer: The value was 4 fold.

Question: And the “fold growth of tumor volume” value ([1]; 9 mg/kg every third day i.p.)?
Answer: The value was 9 fold.

Question: And the peak plasma level [2]?
Answer: The peak plasma level was 0.03 mM.

Question: And the “fold growth of tumor volume” value (subcutaneous 9L tumors; 9 mg/kg daily i.p.)?
Answer: The value was 10 fold.

Question: And the “fold growth of tumor volume” value (subcutaneous 9L tumors; 9 mg/kg every third day i.p.)?
Answer: Its value is 26 fold.

Question: And the peak plasma level ([3]; 50 mg/kg)?
Answer: Its peak plasma level is 0.1 mM.

Question: What about the “dose at which toxic side effects are experienced” value [3] of the same compound?
Answer: Its value is 50 mg/kg.

Question: And the “total intracellular polyglutamate pool leaving the cell as monoglutamylated MTX” value (hepatoma cells)?
Answer: The value was 43%.

Question: What about the “TOTAL MTX ACCUMULATED” value (9L cells [4]) of the same compound?
Answer: Its value is 6.3 pmol/mg protein.

Question: What about the “total radioactivity associated with the higher order polyglutamates MTX-G4 and G5” value (9L cells [4]) of the same compound?
Answer: Its value is 14%.

Question: And the “POLYGLUTAMATE DISTRIBUTION (percentages of total sample lane radioactivity)” value (9L/FPGS cells [5])?
Answer: Its value is 10%.

Question: What about the “TOTAL MTX ACCUMULATED” value (9L/FPGS cells [5]) of the same compound?
Answer: Its value is 12.7 pmol/mg protein.

Question: What about the “total radioactivity associated with the higher order polyglutamates MTX-G4 and G5” value (9L/FPGS cells [5]) of the same compound?
Answer: The value was 31%.

Question: And the MTD (in vivo)?
Answer: Its MTD is 9 mg/kg/day.

Question: What about the survival (9L cells [6]; 9L cells, 0.3 μM for 4 hours, 3 days drug-free medium) of the same compound?
Answer: The survival was about 90%.

Question: And the EC50 (9L cells [6]; 4 h, 4 hrs drug exposure, bystander experiment FIG. 4a)?
Answer: The EC50 was 2700 nM.

Question: What about the EC50 (9L cells [6]; [11]) of the same compound?
Answer: Its EC50 is 2900 nM.

Question: And the EC50 (9L cells [6]; 72 h, 72 hrs drug exposure)?
Answer: Its EC50 is 40 nM.

Question: What about the “maximum tolerated (nonlethal) dose (MTD)” value [7] of the same compound?
Answer: The value was 15 mg/kg/day.

Question: And the “ED50 of U87 higher than that of 9L” value (U87 cells; 4 hour pulse)?
Answer: The value was “over 10 fold”.

Question: And the EC50 (U87 cells; Homo sapiens, U-87 MG, U87, 4 hrs drug exposure, 3 days drug-free, read-out: ED50 (the source's name))?
Answer: The EC50 was 30000 nM.

Question: What about the EC50 ([8]; Rattus norvegicus, coculture 20% 9L/FPGS + 80% 9L, 4 hrs drug exposure, FIG. 4a, read-out: ED50 (the source's name)) of the same compound?
Answer: Its EC50 is 1400 nM.

Question: What about the “transmission efficiency (TE)” value ([8]; cocultures containing 20% 9L/FPGS cells, 4 hour pulses) of the same compound?
Answer: Its value is 49.9%.

Question: And the “range of concentrations with statistically significant difference in survival between 9L and 9L/FPGS” value (9L/FPGS cells [9]; 4 hour pulses)?
Answer: Its value is 100 fold.

Question: And the “difference in ED50 between 9L and 9L/FPGS” value (9L/FPGS cells [9]; 4 hour pulses, FIG. 1 / FIG. 3A)?
Answer: The value was 29 fold.

Question: And the EC50 (9L/FPGS cells [9]; 4 h, 4 hrs drug exposure, bystander experiment FIG. 4a (MTX) / 4b (EDX))?
Answer: The EC50 was 93 nM.

Question: What about the EC50 (9L/FPGS cells [9]; [11]) of the same compound?
Answer: Its EC50 is 101 nM.

Question: And the EC50 (9L/FPGS cells [9]; 72 h, 72 hrs drug exposure)?
Answer: Its EC50 is 40 nM.

Question: And the survival (9L/FPGS cells [9]; two G418-resistant clones (one designated 9L/FPGS), 0.3 μM for 4 hours, 3 days drug-free medium)?
Answer: Its survival is “approximately 40%”.

Question: And the maximum nonlethal dose [10]?
Answer: Its maximum nonlethal dose is 9 mg/kg.
